Reference: patent US9072293B2, “Cyclopropenes and method for applying cyclopropenes to agricultural products or crops” (Erum Biotechnologies Inc., priority 2010, dated 2015)
Where “and” joins values, the source holds several entries; their conditions need not be identical. Equal entries are not always repeated.

How the values were obtained:
[1] = Relative chemical stability of cyclopropenes measured by 1H-NMR; assay type: physicochemical
Summary of the method: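 Compounds in CDCl3 NMR tubes stored at −20° C. or room temperature and followed by 1H-NMR. Integrals of characteristic 1-alkylcyclopropene peaks (4–6.5 ppm, 1H; 0.8–0.9 ppm, 2H) compared against 1,1,3,3-tetramethylurea internal standard (2.80 ppm); stability expressed relative to chain-length-1 analogue.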

tomato [2] = test: Experimental Example 1: Efficacy test on tomato using emulsion (reddening grade); assay type: in vivo; settings: individual tomatoes n=4
Description: In situ, a 1.0 mM 1-octylcyclopropene formulation was prepared using (trans)-1-octyl-1-(methanesulfonyloxy)-2-(trimethylsilyl)cyclopropane of Preparation Example 10 in the same manner as in Example 7. This solution was diluted to 1 to 100 times prior to use, as necessary. Experimental Example 1: Efficacy test on tomato using emulsion 1.0 mM formulations of five agents such as 1-(2-phenylethyl)cyclopropene, 1-(3-phenylpropyl)cyclopropene, 1-(4-phenylbutyl)cyclopropene, 1-(5-phenylpentyl)cyclopropene and 1-hexylcyclopropene were prepared in the same manner as in Example 1, and 1.0 mM and 100 μM solutions were prepared therefrom. Then, the effects of the solutions were compared with non-treated groups and control groups in which a surfactant or a stabilizing agent (sodium dodecylbenzenesulfonate or tristyrenylphenykethoxy)12ethanol) is dissolved.
Tomatoes whose top end began to turn pink were screened, harvested and divided into 12 groups (n=4) in total, i.e., non-treated groups, control groups (surfactant) and agent groups with different concentrations such as 100 μM and 1.0 mM. Tomatoes were treated with the prepared agent formulation using a household sprayer such that the surface thereof was saturated. The tomatoes were stood at room temperature (25-30° C.) for 3 days and a reddening level thereof was evaluated based on grades of 0 to 5.
(§1) At this time, the tops of tomatoes most early turned red, while the bottoms thereof most lately turned red. For this reason, in order to accurately evaluate the difference in reddening, the coloring evaluated was based on the area of red color, rather than the color of tomatoes. […] Accordingly, the grade level is proportional to the rate at which the tomatoes ripened.

tomato [3] = test: Experimental Example 2: Efficacy test on tomato using oil based formulation (reddening grade); assay type: in vivo; settings: 1.0 mM oil-based formulation, individual tomatoes n=4
Text: as §1
As illustrated in Example 1, in situ, in accordance with the methods of Preparation Examples 15, 16, 17, 18 and 22, five agents (1.0 mmol) such as 1-(2-phenylethyl)cyclopropene, 1-(3-phenylpropyl)cyclopropene, 1-(4-phenylbutyl)cyclopropene, 1-(5-phenylpentyl)cyclopropene and 1-hexylcyclopropene were prepared, 5.0 ml of xylene and 5.0 ml of water were added to the reaction solution, vigorously stirred for 5 minutes and stood. When the mixture was separated into an organic layer (upper layer) and an aqueous layer (lower layer), only the organic layer was collected and the aqueous layer was discarded. […] of hexane was added to the organic layer and homogeneously mixed to prepare a 1.0 mM oil-based formulation.
The tomatoes were screened in the same manner as in Experimental Example 1 and divided into 7 groups (n=4) including a non-treated group, a control group (solvent-treated group) and 5 agent groups. Tomatoes were treated with the previously prepared agent using a household sprayer such that the surface thereof was saturated. The tomatoes were stood at room temperature (25-30° C.) for 3 days and a reddening level thereof was evaluated based on grades of 0 to 5.

C1=C(CCCCc2ccccc2)C1 [(4-Phenylbutyl), 1-(4-phenylbutyl)cyclopropene]
chemical stability (in words) [1]: much more stable
Stability (relative chemical stability, based on cyclopropenes having a chain length of 1) ([1]; 1H-NMR, CDCl3, stored at −20° C. or room temperature, relative to chain length 1): >>10
reddening level (grade 0 to 5) (tomato [2]; 100 μM, Day 0, room temperature (25-30° C.)): 0 (an area in which the surface of tomato was colored in pink was 10% or less) (2×) and 1 (an area in which the surface of tomato was completely colored in red was 10 to 40%) and 2 (an area in which the surface of tomato was completely colored in red was 40 to 70%)
reddening level (grade 0 to 5) (tomato [2]; 100 μM, Day 1, room temperature (25-30° C.)): 0 (an area in which the surface of tomato was colored in pink was 10% or less) (2×) and 1 (an area in which the surface of tomato was completely colored in red was 10 to 40%) and 2 (an area in which the surface of tomato was completely colored in red was 40 to 70%)
reddening level (grade 0 to 5) (tomato [2]; 100 μM, Day 2, room temperature (25-30° C.)): 1 (an area in which the surface of tomato was completely colored in red was 10 to 40%) (2×) and 2 (an area in which the surface of tomato was completely colored in red was 40 to 70%) and 3 (an area in which the surface of tomato was completely colored in red was 70% or more and the bottom area remained green)
reddening level (grade 0 to 5) (tomato [2]; 100 μM, Day 3, room temperature (25-30° C.)): 2 (an area in which the surface of tomato was completely colored in red was 40 to 70%) (2×) and 3 (an area in which the surface of tomato was completely colored in red was 70% or more and the bottom area remained green) and 4
reddening level (grade 0 to 5) (tomato [2]; 1.0 mM, Day 0, room temperature (25-30° C.)): 0 (an area in which the surface of tomato was colored in pink was 10% or less) (2×) and 1 (an area in which the surface of tomato was completely colored in red was 10 to 40%) and 2 (an area in which the surface of tomato was completely colored in red was 40 to 70%)
reddening level (grade 0 to 5) (tomato [2]; 1.0 mM, Day 1, room temperature (25-30° C.)): 0 (an area in which the surface of tomato was colored in pink was 10% or less) (2×) and 1 (an area in which the surface of tomato was completely colored in red was 10 to 40%) and 2 (an area in which the surface of tomato was completely colored in red was 40 to 70%)
reddening level (grade 0 to 5) (tomato [2]; 1.0 mM, Day 2, room temperature (25-30° C.)): 0 (an area in which the surface of tomato was colored in pink was 10% or less) (2×) and 1 (an area in which the surface of tomato was completely colored in red was 10 to 40%) and 3 (an area in which the surface of tomato was completely colored in red was 70% or more and the bottom area remained green)
reddening level (grade 0 to 5) (tomato [2]; 1.0 mM, Day 3, room temperature (25-30° C.)): 1 (an area in which the surface of tomato was completely colored in red was 10 to 40%) (2×) and 2 (an area in which the surface of tomato was completely colored in red was 40 to 70%) and 3 (an area in which the surface of tomato was completely colored in red was 70% or more and the bottom area remained green)
Tomato results: reddening level (grade 0 to 5) (tomato [3]; Day 0, room temperature (25-30° C.)): 0 (an area in which the surface of tomato was colored in pink was 10% or less) (2×) and 1 (an area in which the surface of tomato was completely colored in red was 10 to 40%) and 2 (an area in which the surface of tomato was completely colored in red was 40 to 70%)
Tomato results: reddening level (grade 0 to 5) (tomato [3]; Day 1, room temperature (25-30° C.)): 0 (an area in which the surface of tomato was colored in pink was 10% or less) (2×) and 1 (an area in which the surface of tomato was completely colored in red was 10 to 40%) and 2 (an area in which the surface of tomato was completely colored in red was 40 to 70%)
Tomato results: reddening level (grade 0 to 5) (tomato [3]; Day 2, room temperature (25-30° C.)): 0 (an area in which the surface of tomato was colored in pink was 10% or less) (2×) and 1 (an area in which the surface of tomato was completely colored in red was 10 to 40%) and 3 (an area in which the surface of tomato was completely colored in red was 70% or more and the bottom area remained green)
Tomato results: reddening level (grade 0 to 5) (tomato [3]; Day 3, room temperature (25-30° C.)): 1 (an area in which the surface of tomato was completely colored in red was 10 to 40%) and 0 (an area in which the surface of tomato was colored in pink was 10% or less) and 2 (an area in which the surface of tomato was completely colored in red was 40 to 70%) and 4
